Measured values as given in article PMC11380953, “Multivalent, calcium-independent binding of surfactant protein A and D to sulfated glycosaminoglycans of the alveolar epithelial glycocalyx” (American Journal of Physiology - Lung Cellular and …, 2024).

Target: T1, hSP-A (Homo sapiens, UniProt Q8IWL1+Q8IWL2)
T1 construct: Human PAP patient, BAL isolated; from tissue; host or cells: bronchoalveolar lavage fluid of a patient with pulmonary alveolar proteinosis
Experiment: Collectin-based binding assay (immobilized hSP-A, WGA-AlexaFluor488 detection)
Settings: for normalized fluorescence of WGA bound to GAG on immobilized hSP-A: absence of calcium (Fig. 4B, C); for binding of immobilized hSP-A to GAG (normalized fluorescence): presence of 5 mM calcium (Fig. 4B, C)
Method: hSP-A was immobilized in a black 96-well plate (655076, Greiner BIO-One, Frickenhausen, Germany) by coating the plate with a specific anti-SP-A antibody (Abcam, abab190087, Cambridge, UK) at a concentration of 0.5 µg/mL in coating buffer [0.1 M NaHCO3 buffer (pH 9.6)] at 4°C overnight. Afterward, the plate was blocked with 100 µL Synblock (Bio-Rad, BUF034B, California) for 2 h at room temperature. Then, hSP-A was added at 14 ng/well and incubated with the antibody for 1 h at room temperature in washing buffer (5 mM Tris, 0.9% NaCl, and 0.05% Tween-20) to immobilize it. After washing with washing buffer, different concentrations of HA or HS ranging from 10 mM to 1 nM were added in either washing buffer without calcium or with 5 mM CaCl2 and incubated with the immobilized protein for 1 h at room temperature. The following washing steps were performed with washing buffer containing no calcium or 5 mM CaCl2. To detect the GAGs bound to the protein, an AlexaFluor488-conjugated wheat germ agglutinin (WGA, W11261, Invitrogen, Massachusetts) was added at 50 µg/mL in washing buffer containing no calcium or 5 mM CaCl2 and incubated it for 30 min at room temperature protected from light. After washing with washing buffer with or without calcium, 100 µL of washing buffer without calcium was added to read the fluorescence of the bound WGA with an excitation filter at 485 nm and an emission filter at 520 nm in a plate reader (FLUOstar Omega, BMG Labtech, Ortenberg, Germany).
The data of the binding inhibition assay were analyzed in GraphPad Prism 9.5.1 using the “normalize” function and fitting to the nonlinear regression dose-response inhibition. The best fitting was achieved using the “[Inhibitor] versus response–variable slope (four parameters)” model. The fluorescence values from the collectin-based binding assay were normalized using the same “normalize” function in GraphPad, and the statistical test used was the “non-parametric Kruskal-Wallis” test. The statistical test used for the DMMB assay for GAG quantification was also the “non-parametric Kruskal-Wallis” test.

T1 sequence (Q8IWL2 21-248): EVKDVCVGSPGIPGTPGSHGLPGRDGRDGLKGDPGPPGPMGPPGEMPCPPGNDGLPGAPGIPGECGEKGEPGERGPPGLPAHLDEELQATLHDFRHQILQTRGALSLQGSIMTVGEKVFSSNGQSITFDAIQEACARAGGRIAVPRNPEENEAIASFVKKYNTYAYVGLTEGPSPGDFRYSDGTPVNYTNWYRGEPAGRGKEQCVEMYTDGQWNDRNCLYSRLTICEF
T1 sequence (Q8IWL1 21-248): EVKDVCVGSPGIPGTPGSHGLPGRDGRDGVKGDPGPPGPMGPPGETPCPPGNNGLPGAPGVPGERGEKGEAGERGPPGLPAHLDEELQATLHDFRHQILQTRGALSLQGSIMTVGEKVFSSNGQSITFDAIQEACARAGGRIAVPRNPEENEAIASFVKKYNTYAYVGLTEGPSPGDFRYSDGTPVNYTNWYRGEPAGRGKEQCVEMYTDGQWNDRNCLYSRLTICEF

| Substance | normalized fluorescence of WGA bound to GAG on immobilized hSP-A | binding of immobilized hSP-A to GAG (normalized fluorescence) |
| --- | --- | --- |
| heparan sulfate sodium [HS] | increased fluorescence | able to bind |
| hyaluronic acid sodium salt [HA] | no significant increase in fluorescence | able to bind |
